The test system of this assay is T-cell line stimulated by Cha o 2 from patients with Japanese cypress pollinosis. As to the kind of experiment: Growth response ([3H]thymidine uptake) of Cha o 2-stimulated T-cell lines to overlapping peptides. The format is cell-based, human. Conditions: Cha o 2 overlapping peptides, final concentration 1 μM; T-cell lines from 20 patients; FIG. 5, FIG. 8. An excerpt:
To obtain the T-cell epitope peptides of the present invention, overlapping peptides that cover the entire primary structures of Cha o 1 and Cha o 2 were synthesized; each peptide consists of the adequate number of amino acid residues (12 to 20 residues). The peptide of the present invention stimulates and/or suppresses the activity of T cells derived from patients with pollinosis caused by tree pollens in springtime. In other words, the peptide of the present invention can induce proliferation of T cells or responses of T cells such as secretion of lymphokines, and/or can induce T-cell anergy (non-responsiveness). T-cell epitope sites on the allergen molecules can be identified using T-cell growth as an index in accordance with the method described in JP-A-Hei 8-47392. In particular, T-cell lines or T-cell clones, which are specifically reactive with Cha o 1 and Cha o 2, are established for every patient from peripheral lymphocytes of a patient with Japanese cypress pollinosis. The T-cell lines or T-cell clones are cultured in the presence of each peptide of the overlapping peptides. The epitope sites are identified by measuring the proliferation of T cells in the presence of the peptide (e.g., uptake of [^3H]thymidine into the cells) and calculating a stimulation index. […] Based on the data obtained thus, a mean stimulation index for each peptide is calculated for each patient group. […]

Take “2-14: overlapping peptide of Japanese cypress pollen allergen Cha o 2, 20 residues (ARWKNSKIWLQFAQLTDFNL)”: the “T-cell stimulating activity (contains at least one T-cell epitope)” value is on record as “possess a T-cell stimulating activity”.

For the origin of these results see patent US7547440B2, “T-cell epitope peptides” (Meiji Dairies Corporation, priority 1996, dated 2009).
